Test results from ChEMBL document CHEMBL5042519, “Design and synthesis of marine sesterterpene analogues as novel estrogen receptor α degraders for breast cancer treatment” (Eur J Med Chem, 2022).
Activity calls are given as the source filed them. The rule behind the calls is not given here.

Key:
[1] = Antiproliferative activity against human MCF-10A cells assessed as reduction in cell viability after 48 hrs by MTT assay; assay type: toxicity, cell-based
MCF7 [2] = assay: Antiproliferative activity against human MCF7/ADR cells assessed as reduction in cell viability after 48 hrs by MTT assay; assay type: functional, cell-based; conditions: MCF7, 48 h
[3] = Resistance index, ratio of IC50 for antiproliferative activity against human MCF7/ADR cells to IC50 for antiproliferative activity against human MCF7 cells; assay type: functional
MDA-MB-231 = assay: Antiproliferative activity against human MDA-MB-231 cells assessed as reduction in cell viability after 48 hrs by MTT assay; conditions: MDA-MB-231, 48 h
[4] = Selectivity index, ratio of IC50 for antiproliferative activity against human MCF-10A cells to IC50 for antiproliferative activity against human MDA-MB-231 cells by MTT assay; assay type: toxicity, cell-based; conditions: MCF-10A cells versus MDA-MB-231 cells, read-out: Ratio IC50
[5] = target: T1, Estrogen receptor (Homo sapiens) (UniProt P03372); assay: Induction of ERalpha degradation in human MCF7 cells assessed as decrease in ERalpha protein expression at 1 uM incubated for 24 hrs by Western blot analysis; assay type: cell-based
T1 sequence (whole entry): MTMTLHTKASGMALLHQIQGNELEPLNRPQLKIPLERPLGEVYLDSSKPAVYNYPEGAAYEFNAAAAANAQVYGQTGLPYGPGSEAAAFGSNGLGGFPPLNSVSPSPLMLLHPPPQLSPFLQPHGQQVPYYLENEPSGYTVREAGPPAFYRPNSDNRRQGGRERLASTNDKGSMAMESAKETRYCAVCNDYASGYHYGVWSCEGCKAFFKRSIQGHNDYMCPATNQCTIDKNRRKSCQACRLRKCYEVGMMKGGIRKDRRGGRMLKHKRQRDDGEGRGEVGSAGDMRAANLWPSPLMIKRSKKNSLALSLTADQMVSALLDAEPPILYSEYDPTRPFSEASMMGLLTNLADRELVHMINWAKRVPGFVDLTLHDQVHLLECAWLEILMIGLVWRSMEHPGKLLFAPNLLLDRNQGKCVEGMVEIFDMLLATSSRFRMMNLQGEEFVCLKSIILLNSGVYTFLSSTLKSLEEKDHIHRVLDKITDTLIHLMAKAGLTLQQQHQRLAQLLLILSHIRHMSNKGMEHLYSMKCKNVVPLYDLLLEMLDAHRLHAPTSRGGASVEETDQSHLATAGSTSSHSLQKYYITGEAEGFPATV

[6] = target: T1, Estrogen receptor (Homo sapiens); assay: Induction of ERalpha degradation in human MCF7 cells assessed as decrease in ERalpha protein expression at 0.5 to 3 uM for 24 hrs by Western blot analysis; assay type: cell-based; conditions: dose 0.5-3 µM
[7] = target: T1, Estrogen receptor (Homo sapiens); assay: Induction of ERalpha degradation in human MCF7 cells assessed as decrease in ERalpha protein expression at 3 uM measured upto 24 hrs by Western blot analysis; assay type: cell-based; conditions: time hrs <=24, TDE = time-dependent effect
[8] = target: T1, Estrogen receptor (Homo sapiens); assay: Induction of ERalpha degradation in human MCF7 cells assessed as ERalpha level at 3 uM measured after 24 hrs in presence of proteasome inhibitor MG132 by Western blot analysis; assay type: cell-based
MCF7 [9] = assay: Inhibition of colony formation in human MCF7 cells at 0.5 to 2 uM measured after 9 days by crystal violet staining based assay; assay type: functional, cell-based; conditions: dose 0.5-2 µM, time 9.0 day
MCF7 [10] = assay: Inhibition of colony formation in human MCF7 cells at 2 uM measured after 9 days by crystal violet staining based assay relative to control; assay type: functional, cell-based; conditions: time 9.0 day
MCF7 [11] = assay: Effect on cell morphology in human MCF7 cells assessed as appearance of round cells at 0.5 to 2 uM measured after 24 hrs by Hoechst 33342 staining based fluorescence microscopy; assay type: functional; conditions: dose 0.5-2 µM
MCF7 [12] = assay: Induction of apoptosis in human MCF7 cells assessed as early apoptotic cells at 0.5 uM incubated for 24 hrs by annexin-V and PI staining based flow cytometry analysis relative to control; assay type: functional
MCF7 [13] = assay: Induction of apoptosis in human MCF7 cells assessed as early apoptotic cells at 1 uM incubated for 24 hrs by annexin-V and PI staining based flow cytometry analysis relative to control; assay type: functional
MCF7 [14] = assay: Induction of apoptosis in human MCF7 cells assessed as early apoptotic cells at 2 uM incubated for 24 hrs by annexin-V and PI staining based flow cytometry analysis relative to control; assay type: functional
MCF7 [15] = assay: Induction of ROS generation in human MCF7 cells assessed as increase in intracellular ROS level at 0.5 to 2 uM and measured after 24 hrs by DCFH-DA staining based flow cytometry method; assay type: functional, cell-based; conditions: dose 0.5-2 µM
MCF7 [16] = assay: Induction of ROS generation in human MCF7 cells assessed as increase in intracellular ROS level at 2 uM measured after 24 hrs by DCFH-DA staining based flow cytometry method (reference value: 19.02%); assay type: functional
MCF7 [17] = assay: Induction of apoptosis in human MCF7 cells assessed as increase in cytochrome C protein level at 0.5 to 3 uM and measured after 24 hrs Western blot analysis relative to control; assay type: functional, cell-based; conditions: dose 0.5-3 µM
MCF7 [18] = assay: Induction of apoptosis in human MCF7 cells assessed as decrease in Bcl2 protein level at 0.5 to 3 uM and measured after 24 hrs Western blot analysis relative to control; assay type: functional, cell-based; conditions: dose 0.5-3 µM
MCF7 [19] = assay: Induction of apoptosis in human MCF7 cells assessed as increase in cleaved caspase 3 level at 0.5 to 3 uM and measured after 24 hrs Western blot analysis relative to control; assay type: functional, cell-based; conditions: dose 0.5-3 µM
MCF7 [20] = assay: Cell cycle arrest in human MCF7 cells assessed as accumulation at G1 phase at 2 uM measured after 24 hrs by propidium iodide staining based flow cytometry (reference value: 73.45 %); assay type: functional
MCF7 [21] = assay: Cell cycle arrest in human MCF7 cells assessed as decrease in G2/M phase accumulation at 0.5 to 2 uM and measured after 24 hrs by propidium iodide staining based flow cytometry relative to control; assay type: functional; conditions: dose 0.5-2 µM
MCF7 [22] = assay: Cell cycle arrest in human MCF7 cells assessed as reduction in cyclin D1 expression at 0.5 to 3 uM and measured after 24 hrs by Western blot analysis; assay type: functional, cell-based; conditions: dose 0.5-3 µM
MCF7 [23] = assay: Cell cycle arrest in human MCF7 cells assessed as reduction in CDK4 expression at 0.5 to 3 uM and measured after 24 hrs by Western blot analysis; assay type: functional, cell-based; conditions: dose 0.5-3 µM
[24] = Metabolic stability in rat plasma assessed as parent compound remaining incubated for 60 mins in presence of NADPH by UPLC-MS analysis; assay type: ADME, cell-free; conditions: read-out: Stability
[25] = Metabolic stability in rat liver microsomes assessed as assessed as intrinsic clearance incubated for 60 mins in presence of NADPH by UPLC-MS analysis; assay type: ADME, Microsome; conditions: read-out: CLH
[26] = target: T1, Estrogen receptor (Homo sapiens); assay: Induction of ERalpha degradation in human MCF7 cells assessed as ERalpha level at 3 uM measured after 24 hrs in presence of HyT by Western blot analysis; assay type: cell-based
[27] = target: T1, Estrogen receptor (Homo sapiens); assay: Induction of ERalpha degradation in human MCF7 cells assessed as ERalpha level at 3 uM measured after 24 hrs in presence of chloroquine by Western blot analysis; assay type: cell-based
MCF7 [28] = assay: Effect on cell morphology in human MCF7 cells assessed as chromatin shrinkage at 0.5 to 2 uM measured after 24 hrs by Hoechst 33342 staining based fluorescence microscopy; assay type: functional; conditions: dose 0.5-2 µM
MCF7 [29] = assay: Cell cycle arrest in human MCF7 cells assessed as accumulation at G1 phase at 0.5 uM measured after 24 hrs by propidium iodide staining based flow cytometry (reference value: 73.45 %); assay type: functional

Q: Which IC50 at 48 h [1] does the source give for `CC1=CC(=O)[C@H]2/C(C=O)=C\C[C@H]3[C@@H]([C@@H](C)/C=C\C=C/C(=O)OCCOCCOCCOC(=O)CC45CC6CC(CC(C6)C4)C5)CC[C@]3(C)C[C@H]12` here?
A: The IC50 at 48 h was 2190 nM.

Q: And the IC50 (MCF7 [2])?
A: Its IC50 is 480 nM.

Q: And the “Ratio IC50” value [3]?
A: Its value is 1.17.

Q: What about the IC50 (MDA-MB-231) of the same compound?
A: The IC50 was 310 nM.

Q: What about the selectivity ratio [4] of the same compound?
A: The selectivity ratio was 5.34.

Q: What about the Activity [5] of the same compound?
A: Its Activity is “Active”.

Q: And the Activity [6]?
A: Its Activity is “Dose-Dependent Effect”.

Q: What about the Activity [7] of the same compound?
A: Its Activity is “Tde”.

Q: What about the Activity [8] of the same compound?
A: The Activity was “inactive”.

Q: What about the inhibition (MCF7 [9]) of the same compound?
A: Its inhibition is “Active”.

Q: What about the inhibition (MCF7 [10]) of the same compound?
A: Its inhibition is “Active”.

Q: What about the Activity (MCF7 [11]) of the same compound?
A: The Activity was “Active”.

Q: What about the Activity (MCF7 [12]) of the same compound?
A: Its Activity is 6.9%.

Q: What about the Activity (MCF7 [13]) of the same compound?
A: The Activity was 14.1%.

Q: What about the Activity (MCF7 [14]) of the same compound?
A: Its Activity is 32.3%.

Q: And the Activity (MCF7 [15])?
A: The Activity was “Dose-Dependent Effect”.

Q: What about the Activity (MCF7 [16]) of the same compound?
A: The Activity was 58.14%.

Q: And the Activity (MCF7 [17])?
A: The Activity was “Active”.

Q: And the Activity (MCF7 [18])?
A: The Activity was “Active”.

Q: What about the Activity (MCF7 [19]) of the same compound?
A: Its Activity is “Dose-Dependent Effect”.

Q: And the Activity (MCF7 [20])?
A: The Activity was 87.85%.

Q: And the Activity (MCF7 [21])?
A: The Activity was “Active”.

Q: What about the Activity (MCF7 [22]) of the same compound?
A: Its Activity is “Dose-Dependent Effect”.

Q: And the Activity (MCF7 [23])?
A: The Activity was “Dose-Dependent Effect”.

Q: What about the remaining at 1 h [24] of the same compound?
A: The remaining at 1 h was 81%.

Q: What about the microsomal CLint [25] of the same compound?
A: The microsomal CLint was 17.8 µL/min/mg.

Q: And the Activity [26]?
A: Its Activity is “Active”.

Q: What about the Activity [27] of the same compound?
A: The Activity was “Active”.

Q: And the Activity (MCF7 [28])?
A: The Activity was “Active”.

Q: And the Activity (MCF7 [29])?
A: Its Activity is 74.77%.
